In patent publication US20150038541A1, “COMPOSITION AND METHODS FOR CELL MODULATION” (APOSIGNAL BIOSCIENCE LLC, priority 2012, published 2015):

Tests used:
breast T47D cells [1] = experiment: Cell proliferation (growth rate, crystal violet) of breast T47D cells with AS-7 by itself; format: cell-based, human; details: 10 μM AS-7, vehicle doubling time 1.4 days
Description: (§1) To examine the effect of AS-7 on the growth of several different cell lines, AS-7 at 10 μM was added to the culture medium the day after seeding the cells. The following cell lines were used to determine the effect of AS-7 on the rate of proliferation: HeLa, melanoma A2620, ovarian A2780, and breast T47D. All cell line were grown in culture medium (RPMI 1640 for the breast cancer cells and Dulbecco's modified Eagle's medium for the other cell lines) containing 10% heat inactivated fetal bovine serum without antibiotics (penicillin and streptomycin). […] The doubling times in HeLa, melanoma, ovarian and breast cancer derived cells were 0.9, 2.5, 1.0, and 1.4 days, respectively. AS-7 increased the doubling times of the HeLa, melanoma, ovarian, and breast cancer derived cells by 1.3, 1.3, 1.6, and 3.1 fold, respectively (FIGS. 11 through 14).

proteasome = experiment: Proteasome activity measured in lysates of treated cells; format: cell-based
Description: The cytotoxic action of bortezomib is known to be mediated by proteasome inhibition and the induction of apoptosis.

ovarian A2780 cells = experiment: Crystal violet cell viability of ovarian A2780 cells, bortezomib with or without AS-7 (72 hours); format: cell-based, human; details: A2780 cells; 10 μM AS-7
Description: (§2) Ovarian tumor-derived cell lines, IGROV and A2780, were seeded in a 96 well tissue culture plate (2000 cells per well). The compounds, 10 μM AS-7 and bortezomib (BioVision, Inc., Milpitas, Calif.) at the concentrations indicated in the figures, were added the following day. AS-7 was prepared as described in Example I above. […] Values are relative to cells that with the vehicle in which the drugs were dissolved. Vehicle had no effect on cell viability. Error bars in FIG. 6 and FIG. 7 are not shown if they are smaller than the symbols.

breast T47D cells [2] = experiment: FACS cell cycle analysis after propidium iodide staining of breast T47D cells; format: cell-based, human; details: 10 μM AS-7
Description: FIG. 16 illustrates that AS-7 evokes accumulation of breast T47D cells in the G0-G1 phase of the cell cycle. T47D cells were harvested one, two, or three days after treatment with or without AS-7, stained with propidium iodide and subjected to analysis by FACS (Fluorescence Activated Cell Sorter).
A single addition of 10 μM AS-7 for 1 day to 7 or more days was sufficient to evoke accumulation in the Go-G1 phase of the cell cycle (FIGS. 15 and 16) (data not shown). […] HeLa cells were treated with nocodazole (100 ng/ml) for 12 h which evoked accumulation of rounded, loosely attached cells in mitosis. The mitotic cells were harvested and treated with or without 10 μM AS-7 in the absence of nocodazole (Released, 16 hours).

[3] = test system: ovarian tumor derived IGROV cells; experiment: Crystal violet cell viability of ovarian IGROV cells, bortezomib with or without AS-7 (72 hours); format: cell-based; details: 10 μM AS-7
Description: as §2

T47D cells = experiment: MTS cell viability of breast cancer T47D cells, bortezomib with or without AS-7; format: cell-based, human; details: 10 μM AS-7, data not shown
Description: Breast cancer derived cell lines, T47D and 159C, were seeded in a 96 well tissue culture plate (2000 cells per well). The significance of these two lines of breast cancer derived cell lines is that the T47D cells positive for three markers used to optimize the chemotherapeutic treatment, namely HER2 receptor, estrogen receptor, and progesterone receptor. By contrast to the T47D cells, the 159C cells are negative for the three markers. The compounds, 10 μM AS-7 and a range of bortezomib (BioVision, Inc., Milpitas, Calif.) concentrations were added the following day. After 48 hours, MTS was added and absorbance was measured at 490 nm.

HeLa cells [4] = experiment: Glucose utilization and acid production in HeLa cell culture medium; format: cell-based, human; details: 10 μM AS-7, after 5 days
Description: FIG. 19 illustrates that AS-7 increases glucose utilization and acid production in HeLa cells. HeLa cells were cultured (100 mm diameter plates) in medium containing 4.5 mg/ml glucose at pH 7.4. After 5 days medium glucose was determined by standard methodology and the pH of the medium was measured with a pH meter.
Because it was repeatedly observed that AS-7 by itself decreased the pH of the culture medium, it was hypothesized that AS-7 might stimulate glucose utilization and the production of lactic acid, which is a major acidic product of glucose metabolism. HeLa cells were cultured in 100 millimeter diameter tissue culture plates in order to monitor the pH and the glucose concentration of the culture medium. Glucose was quantified with a glucose test strip and meter, as commonly used to monitor fluctuations in blood glucose. A pH meter was used to record the pH of the medium. Control cultures (“Control”) were treated with the appropriate amount of the vehicle used dissolve AS-7. Treated cultures (“AS-7”) incubated with 10 μM AS-7.

Melanoma A2620 cells = experiment: Cell proliferation (growth rate, crystal violet) of melanoma A2620 cells with AS-7 by itself; format: cell-based, human; details: 10 μM AS-7, vehicle doubling time 2.5 days
Description: as §1

HeLa cells [5] = experiment: MTS cell viability of HeLa cells treated with anticancer drug with or without AS-7 (48 hours); format: cell-based, human; details: for Dose Reduction Index (DRI), combination of AS-7 with bortezomib: CalcuSyn
Description: HeLa cells were seeded in a 96 well tissue culture plate (2000 cells per well). The compounds, 10 μM AS-7 and bortezomib (BioVision, Inc., Milpitas, Calif.) at the concentrations indicated in FIG. 1, were added the following day. AS-7 was prepared according to the Ugi reaction by combination of the four components: isocyanide (III), m-cyanobenzaldehyde (IV), 2-benzoylbenzoic acid (V), and histamine (VI) in refluxing methanol (Ref. http://www.occhem.com/synthesis/2561 2.html). The Medicinal Chemistry unit of Southern Research Institute (2000 Ninth Avenue South Birmingham, Ala. 35205) was contracted by a fee for service agreement to synthesize AS-7.
After 48 hours, MTS (3-(4,5-dimethylthiazol-2-yl)-5-(3-carboxymethoxyphenyl)-2-(4-sulfophenyl)-2H-tetrazolium) was added and absorbance was measured at 490 nm. […] Values in FIG. 1 are relative to controls that contained only the vehicle in which the drugs were dissolved. Vehicle had no effect on cell viability. Error bars in FIG. 1 are not visible if they are smaller than the symbols. […]
HeLa cells were seeded in a 96 well tissue culture plate (2000 cells per well). The compounds, 10 μM AS-7 and bortezomib at the concentrations indicated in FIG. 9 were added the following day. After 48 hours, MTS was added and absorbance was measured at 490 nm. […] Values are relative to controls that contained only the vehicle in which the drugs were dissolved. Vehicle had no effect on cell viability.

N#Cc1cccc(C(C(=O)NCC(c2ccccc2)c2ccccc2)N(CCc2c[nH]cn2)C(=O)c2ccccc2C(=O)c2ccccc2)c1 (stereo not shown) [AS-7]
increase of doubling time (breast T47D cells [1]): 3.1 fold | effect on proteasome activity (proteasome; cells treated with 10 ILIM AS-7 alone for various times): no effect | effect of AS-7 on proteasome inhibition by bortezomib (proteasome; data not shown): did not increase | increase in potency of the cytotoxic action of bortezomib by AS-7 (ovarian A2780 cells): approximately 3.1 fold | cell cycle distribution (FACS, propidium iodide) (breast T47D cells [2]): evoked the accumulation | potentiation of the cytotoxic action of bortezomib (loss of cell viability) [3]: markedly potentiates | potentiation of the cytotoxic action of bortezomib (T47D cells): markedly potentiated | glucose concentration of the culture medium relative to control (HeLa cells [4]): significantly decreased | pH of the culture medium relative to control (HeLa cells [4]): significantly decreased | increase of doubling time (Melanoma A2620 cells): 1.3 fold | shift of NLVS concentration dependence (HeLa cell viability) (HeLa cells [5]; 10 μM AS-7, 48 hours, MTS): markedly shifted the NLVS concentration dependence to the left | HeLa cell viability (HeLa cells [5]; AS-7 alone): no loss of cell viability | Dose Reduction Index (DRI), combination of AS-7 with bortezomib (HeLa cells [5]; HeLa cells, 12 nM bortezomib): 7.3 | Dose Reduction Index (DRI), combination of AS-7 with bortezomib (HeLa cells [5]; HeLa cells, 16 nM bortezomib): 18 | Dose Reduction Index (DRI), combination of AS-7 with bortezomib (HeLa cells [5]; HeLa cells, 20 nM bortezomib): 72 | increase in potency of the cytotoxic action of bortezomib by AS-7 (HeLa cells [5]; HeLa cells, 10 μM AS-7): approximately 3.5 fold
